Source: patent US9833497B2, “Human originated EGF domain proteins and use of the same” (CHENGDU SOURCEBIO LIMITED-LIABILITY COMPANY, priority 2013, dated 2017)

Legend:
Type in all cases: cell-based
[1] = test system: Aeromonas hydrophila; experiment: MIC against Gram-negative bacteria: Aeromonas hydrophila; conditions: for MIC A. hydrophila / MIC against A. hydrophila: 5×10^5 CFU/mL
Summary of the method: (§1)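 Broth microdilution, LB medium, final inoculum 5×10^5 CFU/mL from McFarland 0.5 cultures. Recombinant human EGF domain proteins tested in two-fold steps, n=3. MIC: lowest concentration, no growth.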

[2] = test system: Moraxella catarrhalis; experiment: MIC against Gram-negative bacteria: Moraxella catarrhalis; conditions: for MIC M. catarrhalis / MIC against M. catarrhalis: 5×10^5 CFU/mL
Summary of the method: as §1

[3] = test system: Citrobacter diversus; experiment: MIC against Gram-negative bacteria: Citrobacter diversus; conditions: for MIC C. diversus / MIC against C. diversus: 5×10^5 CFU/mL
Summary of the method: as §1

[4] = test system: Proteus vulgaris; experiment: MIC against Gram-negative bacteria: Proteus vulgaris; conditions: for MIC P. vulgaris / MIC against P. vulgaris: 5×10^5 CFU/mL
Summary of the method: as §1

[5] = test system: E. coli BL21; experiment: MIC against Gram-negative bacteria: E. coli BL21; conditions: for MIC E. coli BL21 / MIC against E. coli BL21: 5×10^5 CFU/mL
Summary of the method: as §1

[6] = test system: Klebsiella pneumonia; experiment: MIC against Gram-negative bacteria: Klebsiella pneumonia; conditions: for MIC K. pneumonia / MIC against K. pneumonia: 5×10^5 CFU/mL
Summary of the method: as §1

[7] = test system: Serratia marcescens; experiment: MIC against Gram-negative bacteria: Serratia marcescens; conditions: for MIC S. marcescens / MIC against S. marcescens: 5×10^5 CFU/mL
Summary of the method: as §1

[8] = test system: Proteus mirabilis; experiment: MIC against Gram-negative bacteria: Proteus mirabilis; conditions: for MIC P. mirabilis / MIC against P. mirabilis: 5×10^5 CFU/mL
Summary of the method: as §1

[9] = test system: E. coli DH5α; experiment: Antibacterial activity: MIC and growth curve against E. coli DH5α in 96-well plate; conditions: minimal inhibitory concentration against E. coli DH5α; 96-well plate, 5×10^5 CFU/mL, 37° C., judged after 8 h
Summary of the method: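 Log-phase DH5α (OD600 about 0.5, 37° C, 185 rpm in LB) was pelleted, resuspended in fresh LB and seeded at 5×10^5 CFU/mL with recombinant protein at 50, 25 and 12.5 μg/mL (two-fold series), in triplicate. Plates were shaken at 175 rpm, 37° C, and OD600 was read every 30 min. MIC was the lowest concentration with no growth.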

[10] = test system: Enterobacter cloacae; experiment: MIC against Gram-negative bacteria: Enterobacter cloacae; conditions: for MIC E. cloacae / MIC against E. cloacae: 5×10^5 CFU/mL
Summary of the method: as §1

[11] = test system: Pseudomonas aeruginosa; experiment: MIC against Gram-negative bacteria: Pseudomonas aeruginosa; conditions: for MIC P. aeruginosa / MIC against P. aeruginosa: 5×10^5 CFU/mL
Summary of the method: as §1

[12] = 10 h cultivation at 37° C., two-fold serial dilution
[13] = E. coli BL21, 10 h cultivation at 37° C.

Row | Substance | MIC A. hydrophila [1, 12] [µg/mL] | MIC M. catarrhalis [2, 12] [µg/mL] | MIC C. diversus [3, 12] [µg/mL] | MIC P. vulgaris [4, 12] [µg/mL] | MIC E. coli BL21 [5, 12] [µg/mL] | MIC K. pneumonia [6, 12] [µg/mL] | MIC S. marcescens [7, 12] [µg/mL] | MIC P. mirabilis [8, 12] [µg/mL] | MIC [9] [µg/mL] | MIC E. cloacae [10, 12] [µg/mL] | MIC P. aeruginosa [11, 12] [µg/mL] | MIC against A. hydrophila ([1]; 96-well plate, 37° C., 10 h) [µg/mL] | MIC against M. catarrhalis ([2]; 96-well plate, 37° C., 10 h) [µg/mL] | MIC against C. diversus ([3]; 96-well plate, 37° C., 10 h) [µg/mL] | MIC against P. vulgaris ([4]; 96-well plate, 37° C., 10 h) [µg/mL] | MIC against E. coli BL21 ([5]; 96-well plate, 37° C., 10 h) [µg/mL] | MIC against K. pneumonia ([6]; 96-well plate, 37° C., 10 h) [µg/mL] | MIC against S. marcescens ([7]; 96-well plate, 37° C., 10 h) [µg/mL] | MIC against P. mirabilis ([8]; 96-well plate, 37° C., 10 h) [µg/mL] | MIC against E. cloacae ([10]; 96-well plate, 37° C., 10 h) [µg/mL] | also measured
1 | PRT1074 (QYRQCSGYCENFGTCQMAADGSRQCRCTAYFEGSRCE; listed as Homo sapiens) | 12.5 | 12.5 | 12.5 | 12.5 | 12.5 | 12.5 | 12.5 | 12.5 | 50 | 12.5 | 50 | – | – | – | – | – | – | – | – | – | –
2 | PRT1130 (DDCSSHCDLAHGCCAPDGSCRCDPGWEGLHCE; listed as Homo sapiens) | 12.5 | 50 | 25 | 12.5 | 12.5 | 12.5 | 25 | 25 | 12.5 | 50 | 50 | – | – | – | – | – | – | – | – | – | –
3 | PRT617 (CNCNSKGSLSARCDNSGRCSCKPGVTGARCDRCLPGFHMLTDAGCTQ; listed as Homo sapiens) | – | – | – | – | – | – | – | – | 25 | – | – | – | – | – | – | – | – | – | – | – | MIC A. hydrophila ([1]; 96-well plate, 37° C., 10 h): 12.5 µg/mL; MIC M. catarrhalis ([2]; 96-well plate, 37° C., 10 h): 12.5 µg/mL; MIC C. diversus ([3]; 96-well plate, 37° C., 10 h): 25 µg/mL; MIC P. vulgaris ([4]; 96-well plate, 37° C., 10 h): 12.5 µg/mL; MIC E. coli BL21 ([5]; 96-well plate, 37° C., 10 h): 12.5 µg/mL; MIC K. pneumonia ([6]; 96-well plate, 37° C., 10 h): 12.5 µg/mL; MIC S. marcescens ([7]; 96-well plate, 37° C., 10 h): 25 µg/mL; MIC P. mirabilis ([8]; 96-well plate, 37° C., 10 h): 25 µg/mL; MIC E. cloacae ([10]; 96-well plate, 37° C., 10 h): 25 µg/mL; MIC P. aeruginosa ([11]; 96-well plate, 37° C., 10 h): 25 µg/mL
4 | PRT463 (DVNECLQLPKACAYQCHNLQGSYRCLCPPGQTLLRDGKACT; listed as Homo sapiens) | – | – | – | – | – | – | – | – | 50 | – | – | 12.5 | 12.5 | 50 | 12.5 | 12.5 | 12.5 | 50 | 12.5 | 50 | MIC against P. aeruginosa ([11]; 96-well plate, 37° C., 10 h): 50 µg/mL
5 | PRT1077 (RSHACENDQYGKPGGCSDICLLANSHKARTCRCRSGFSLGSDGKSCK; listed as Homo sapiens) | 25 | 25 | 25 | 50 | 12.5 | 50 | 12.5 | 25 | 12.5 | 25 | 12.5 | – | – | – | – | – | – | – | – | – | –
6 | PRT460 (DRDECSGGPSPCSHACLNAPGRFSCTCPTGFALAWDDRNCR; listed as Homo sapiens) | – | – | – | – | – | – | – | – | 50 | – | – | 12.5 | 25 | 50 | 50 | 25 | 25 | 12.5 | 12.5 | 50 | MIC against P. aeruginosa ([11]; 96-well plate, 37° C., 10 h): 12.5 µg/mL
7 | PRT949 (FVDVCPQMPCLNGGTCAVASNMPDGFICRCPPGFSGARCQ; listed as Homo sapiens) | – | – | – | – | – | – | – | – | 12.5 | – | – | – | – | – | – | – | – | – | – | – | MIC ([1]; A. hydrophila, 10 h cultivation at 37° C.): 50 µg/mL; MIC ([2]; M. catarrhalis, 10 h cultivation at 37° C.): 25 µg/mL; MIC ([3]; C. diversus, 10 h cultivation at 37° C.): 12.5 µg/mL; MIC ([4]; P. vulgaris, 10 h cultivation at 37° C.): 12.5 µg/mL; MIC [5, 13]: 25 µg/mL; MIC ([6]; K. pneumonia, 10 h cultivation at 37° C.): 25 µg/mL; MIC ([7]; S. marcescens, 10 h cultivation at 37° C.): 25 µg/mL; MIC ([8]; P. mirabilis, 10 h cultivation at 37° C.): 50 µg/mL; MIC ([10]; E. cloacae, 10 h cultivation at 37° C.): 12.5 µg/mL; MIC ([11]; P. aeruginosa, 10 h cultivation at 37° C.): 50 µg/mL
8 | PRT1381 (GMRSCPRGCSQRGRCENGRCVCNPGYTGEDC; listed as Homo sapiens) | – | – | – | – | – | – | – | – | 12.5 | – | – | – | – | – | – | – | – | – | – | – | MIC against A. hydrophila ([1]; Aeromonas hydrophila, 10 h cultivation at 37° C.): 50 µg/mL; MIC against M. catarrhalis ([2]; Moraxella catarrhalis, 10 h cultivation at 37° C.): 12.5 µg/mL; MIC against C. diversus ([3]; Citrobacter diversus, 10 h cultivation at 37° C.): 25 µg/mL; MIC against P. vulgaris ([4]; Proteus vulgaris, 10 h cultivation at 37° C.): 50 µg/mL; MIC against E. coli BL21 [5, 13]: 25 µg/mL; MIC against K. pneumonia ([6]; Klebsiella pneumonia, 10 h cultivation at 37° C.): 25 µg/mL; MIC against S. marcescens ([7]; Serratia marcescens, 10 h cultivation at 37° C.): 25 µg/mL; MIC against P. mirabilis ([8]; Proteus mirabilis, 10 h cultivation at 37° C.): 25 µg/mL; MIC against E. cloacae ([10]; Enterobacter cloacae, 10 h cultivation at 37° C.): 12.5 µg/mL; MIC against P. aeruginosa ([11]; Pseudomonas aeruginosa, 10 h cultivation at 37° C.): 50 µg/mL
9 | PRT1169 (RDSQCDEATCNNGGTCYDEGDAFKCMCPGGWEGTTCN; listed as Homo sapiens) | 12.5 | 12.5 | 50 | 12.5 | 25 | 25 | 12.5 | 12.5 | 50 | 12.5 | 50 | – | – | – | – | – | – | – | – | – | –
10 | PRT1221 (DINECLQSPCKNGAICQNFPGSFNCVCKTGYTGKMCE; listed as Homo sapiens) | – | – | – | – | – | – | – | – | 25 | – | – | – | – | – | – | – | – | – | – | – | MIC against A. hydrophila ([1]; Aeromonas hydrophila, 96-well plate, 37° C., 10 h): 25 µg/mL; MIC against M. catarrhalis ([2]; Moraxella catarrhalis, 96-well plate, 37° C., 10 h): 50 µg/mL; MIC against C. diversus ([3]; Citrobacter diversus, 96-well plate, 37° C., 10 h): 12.5 µg/mL; MIC against P. vulgaris ([4]; Proteus vulgaris, 96-well plate, 37° C., 10 h): 12.5 µg/mL; MIC against E. coli BL21 ([5]; E. coli BL21, 96-well plate, 37° C., 10 h): 12.5 µg/mL; MIC against K. pneumonia ([6]; Klebsiella pneumonia, 96-well plate, 37° C., 10 h): 25 µg/mL; MIC against S. marcescens ([7]; Serratia marcescens, 96-well plate, 37° C., 10 h): 50 µg/mL; MIC against P. mirabilis ([8]; Proteus mirabilis, 96-well plate, 37° C., 10 h): 25 µg/mL; MIC against E. cloacae ([10]; Enterobacter cloacae, 96-well plate, 37° C., 10 h): 50 µg/mL; MIC against P. aeruginosa ([11]; Pseudomonas aeruginosa, 96-well plate, 37° C., 10 h): 25 µg/mL
11 | PRT733 (SSNGCSNNMNACQQICLPVPGGLFSCACATGFKLNPDNRSCS; listed as Homo sapiens) | – | – | – | – | – | – | – | – | 50 | – | – | – | – | – | – | – | – | – | – | – | MIC A. hydrophila ([1]; 96-well plate, 37° C., 10 h): 12.5 µg/mL; MIC M. catarrhalis ([2]; 96-well plate, 37° C., 10 h): 50 µg/mL; MIC C. diversus ([3]; 96-well plate, 37° C., 10 h): 25 µg/mL; MIC P. vulgaris ([4]; 96-well plate, 37° C., 10 h): 12.5 µg/mL; MIC E. coli BL21 ([5]; 96-well plate, 37° C., 10 h): 12.5 µg/mL; MIC K. pneumonia ([6]; 96-well plate, 37° C., 10 h): 12.5 µg/mL; MIC S. marcescens ([7]; 96-well plate, 37° C., 10 h): 25 µg/mL; MIC P. mirabilis ([8]; 96-well plate, 37° C., 10 h): 25 µg/mL; MIC E. cloacae ([10]; 96-well plate, 37° C., 10 h): 50 µg/mL; MIC P. aeruginosa ([11]; 96-well plate, 37° C., 10 h): 50 µg/mL
12 | PRT521 (CNCNSFGSKSFDCEESGQCWCQPGVTGKKCDRCAHGYFNFQEGGCTA; listed as Homo sapiens) | – | – | – | – | – | – | – | – | 50 | – | – | 25 | 25 | 12.5 | 25 | 25 | 25 | 12.5 | 50 | 50 | MIC against P. aeruginosa ([11]; 96-well plate, 37° C., 10 h): 12.5 µg/mL
13 | PRT495 (CDCDLRGTSGDACNLEQGLCGCVEETGACPCKENVFGPQCNECREGTFALRADNPLGCSP; listed as Homo sapiens) | – | – | – | – | – | – | – | – | 25 | – | – | 50 | 12.5 | 25 | 12.5 | 50 | 12.5 | 25 | 25 | 25 | MIC against P. aeruginosa ([11]; 96-well plate, 37° C., 10 h): 25 µg/mL
